What was measured:
Format in all cases: biochemical
Itk = biological target: T1, Itk (Homo sapiens, UniProt Q08881); assay: Itk inhibition assay, coupled enzyme; settings: average Ki if more than one determined
T1 sequence (Q08881 1-620): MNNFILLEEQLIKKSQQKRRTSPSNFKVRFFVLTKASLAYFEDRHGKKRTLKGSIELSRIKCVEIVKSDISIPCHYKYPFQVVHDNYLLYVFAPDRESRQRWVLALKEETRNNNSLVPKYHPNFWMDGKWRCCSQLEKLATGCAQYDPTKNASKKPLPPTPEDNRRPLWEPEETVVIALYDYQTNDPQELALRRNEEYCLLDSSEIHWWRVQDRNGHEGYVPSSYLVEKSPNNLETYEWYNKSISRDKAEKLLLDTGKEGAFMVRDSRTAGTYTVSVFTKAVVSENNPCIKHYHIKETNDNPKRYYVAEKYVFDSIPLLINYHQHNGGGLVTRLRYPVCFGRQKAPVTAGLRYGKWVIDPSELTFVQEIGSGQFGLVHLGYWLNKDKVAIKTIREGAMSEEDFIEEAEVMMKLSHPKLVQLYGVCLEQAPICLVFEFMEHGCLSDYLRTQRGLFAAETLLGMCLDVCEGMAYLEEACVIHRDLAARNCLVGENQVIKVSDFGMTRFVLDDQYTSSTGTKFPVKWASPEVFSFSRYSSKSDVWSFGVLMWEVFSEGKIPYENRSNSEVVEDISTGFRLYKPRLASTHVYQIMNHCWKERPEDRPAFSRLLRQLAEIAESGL
Procedure: Compounds were screened for their ability to inhibit Itk using a standard coupled enzyme assay (Fox et al., Protein Sci., (1998) 7, 2249). Assays were carried out in a mixture of 20 mM MOPS (pH 7.0), 10 mM MgCl2, 0.1% BSA, 1 mM DTT, 2.5 mM phosphoenolpyruvate, 300 μM NADH, 30 μg/ml pyruvate kinase and 10 μg/ml lactate dehydrogenase. Final substrate concentrations in the assay were 100 μM ATP (Sigma Chemicals) and 3 μM peptide (Biotinylated SAM68 D332-443). Assays were carried out at 25° C. and in the presence of 100 nM Itk.
An assay stock buffer solution was prepared containing all of the reagents listed above, with the exception of ATP and the test compound of interest. 60 μl of the stock solution was placed in a 96 well plate followed by addition of 2 μl of DMSO stock containing serial dilutions of the test compound (typically starting from a final concentration of 15 μM). The plate was preincubated for 10 minutes at 25° C. and the reaction initiated by addition of 5 μl of ATP. Initial reaction rates were determined with a Molecular Devices SpectraMax Plus plate reader over a 10 minute time course. IC50 and Ki data were calculated from non-linear regression analysis using the Prism software package (GraphPad Prism version 3.0cx for Macintosh, GraphPad Software, San Diego Calif., USA).

ROCK I (AA 6-553) = ROCK I (AA 6-553) (Homo sapiens, UniProt Q13464); assay: ROCK inhibition assay, coupled enzyme system ("Enzyme"); settings: enzyme-linked assay; average Ki if more than one determined
Procedure: Reactions were carried out in a solution containing 100 mM HEPES (pH 7.5), 10 mM MgCl2, 25 mM NaCl, 2 mM DTT and 1.5% DMSO.
(§1) If more than one value of Ki has been determined, the average Ki is indicated. If no value is indicated, then the Ki was not determined.

PKA = PKA (Homo sapiens, UniProt P17612); assay: PKA inhibition assay, coupled enzyme; settings: average Ki if more than one determined
Procedure, shortened: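 Coupled PK/LDH assay following NADH depletion: 18 nM PKA, 50 μM ATP, 80 μM Kemptide in 100 mM HEPES pH 7.5, 10 mM MgCl2, 25 mM NaCl, 1 mM DTT, 3% DMSO, at 30 °C. Compound preincubated 10 min before ATP start; initial rates over 15 min, IC50 and Ki by non-linear regression.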

ROCK = ROCK (Homo sapiens, UniProt Q13464); assay: ROCK radioactive assay ("33P"); settings: radioactive assay; average Ki if more than one determined; read-out: ROCK 33P Ki
Description: as §1

ROCK, sequence (Q13464 whole entry): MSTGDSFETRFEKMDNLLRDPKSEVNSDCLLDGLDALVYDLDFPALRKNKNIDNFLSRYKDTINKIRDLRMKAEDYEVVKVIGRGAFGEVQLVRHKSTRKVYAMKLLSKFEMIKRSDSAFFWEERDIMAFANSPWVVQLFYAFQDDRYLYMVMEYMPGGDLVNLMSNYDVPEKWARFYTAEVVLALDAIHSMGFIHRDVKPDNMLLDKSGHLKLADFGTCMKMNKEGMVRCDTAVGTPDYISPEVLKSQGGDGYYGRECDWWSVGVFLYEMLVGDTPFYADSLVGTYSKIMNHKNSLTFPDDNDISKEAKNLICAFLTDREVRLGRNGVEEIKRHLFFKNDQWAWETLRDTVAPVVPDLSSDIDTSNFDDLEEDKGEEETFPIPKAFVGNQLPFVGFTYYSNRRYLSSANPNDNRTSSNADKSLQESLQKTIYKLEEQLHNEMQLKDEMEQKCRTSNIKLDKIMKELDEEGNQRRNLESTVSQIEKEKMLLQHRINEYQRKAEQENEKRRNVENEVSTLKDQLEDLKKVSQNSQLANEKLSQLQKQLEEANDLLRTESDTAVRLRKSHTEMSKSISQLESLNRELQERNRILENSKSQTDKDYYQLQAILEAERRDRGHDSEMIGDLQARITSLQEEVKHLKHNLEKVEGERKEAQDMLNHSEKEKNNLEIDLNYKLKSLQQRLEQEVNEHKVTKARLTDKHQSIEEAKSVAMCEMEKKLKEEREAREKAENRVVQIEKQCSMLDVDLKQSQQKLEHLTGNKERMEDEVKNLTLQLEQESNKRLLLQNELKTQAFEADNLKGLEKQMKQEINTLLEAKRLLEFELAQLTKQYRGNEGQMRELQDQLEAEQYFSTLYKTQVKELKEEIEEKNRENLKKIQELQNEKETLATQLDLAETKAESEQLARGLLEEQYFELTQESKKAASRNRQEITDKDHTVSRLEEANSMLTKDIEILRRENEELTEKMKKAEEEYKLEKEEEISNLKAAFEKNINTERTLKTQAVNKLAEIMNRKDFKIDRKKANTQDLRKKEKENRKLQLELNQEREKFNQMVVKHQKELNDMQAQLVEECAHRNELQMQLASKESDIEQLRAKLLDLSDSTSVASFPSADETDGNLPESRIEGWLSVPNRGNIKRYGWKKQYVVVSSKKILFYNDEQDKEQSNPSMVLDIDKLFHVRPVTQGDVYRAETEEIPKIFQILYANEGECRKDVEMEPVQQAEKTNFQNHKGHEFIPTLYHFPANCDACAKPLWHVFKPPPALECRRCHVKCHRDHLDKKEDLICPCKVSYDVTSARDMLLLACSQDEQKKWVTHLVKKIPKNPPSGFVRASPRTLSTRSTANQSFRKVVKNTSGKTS
ROCK I (AA 6-553), sequence (Q13464 6-553, species assumed): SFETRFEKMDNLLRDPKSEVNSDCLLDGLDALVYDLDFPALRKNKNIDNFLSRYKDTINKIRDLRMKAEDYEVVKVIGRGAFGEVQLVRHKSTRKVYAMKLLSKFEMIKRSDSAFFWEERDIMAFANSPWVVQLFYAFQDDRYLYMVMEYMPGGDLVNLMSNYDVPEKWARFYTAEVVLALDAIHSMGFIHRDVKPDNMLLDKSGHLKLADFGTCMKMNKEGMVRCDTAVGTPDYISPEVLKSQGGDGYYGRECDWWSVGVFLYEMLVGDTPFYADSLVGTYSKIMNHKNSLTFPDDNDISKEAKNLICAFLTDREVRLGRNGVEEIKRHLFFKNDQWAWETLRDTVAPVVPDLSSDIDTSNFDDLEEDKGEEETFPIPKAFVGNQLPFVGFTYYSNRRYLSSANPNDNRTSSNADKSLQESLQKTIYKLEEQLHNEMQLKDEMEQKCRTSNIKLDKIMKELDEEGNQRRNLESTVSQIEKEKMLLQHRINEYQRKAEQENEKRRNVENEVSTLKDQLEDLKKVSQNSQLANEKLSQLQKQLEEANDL

Ki (Itk): 500 to 5000 nM | Ki (ROCK I (AA 6-553)): < 500 nM | Ki (PKA): < 500 nM | Ki (ROCK): < 500 nM
Structure (SMILES): O=C(Cc1ccccc1)Nc1nc(-c2c[nH]c3ncc(Br)cc23)cs1 [II-79]

— patent US7514448B2, “Azaindoles useful as inhibitors of rock and other protein kinases” (Vertex Pharmaceuticals Incorporated, priority 2004, dated 2009)
